The nature of this assay: mitochondrial fusion inhibitors, confirmation, cell-based, chemical genetic, wild-type and mutant (AID 1361). The settings on record: Cell-based mitochondrial fusion phenotype, imaging.
Setting [1] is: mutant cells, measured here: mutant cell line IC50.

By IC50 is commonly meant the concentration needed to halve the response being measured.

Molecules are shown by their SMILES. Calls of active or inactive are those of the source. No rule for the calls is given here.

For the molecule `COc1cc2[nH]c(=O)n(CCC(=O)N3CCN(c4cccc(C)c4C)CC3)c(=O)c2cc1OC`, the IC50 is, setting by setting: (WT cells) > 25 µM (inactive); under setting [1], > 25 µM.
On the same counts, the results for `COC(=O)Cc1ccc(N(Cc2ccccc2F)S(=O)(=O)c2ccc(C)cc2)cc1` are 3.34 µM and > 25 µM.
For `CC1CCCN(c2nc(-c3cccnc3)nc3scc(-c4ccccc4)c23)C1` (stereo unspecified) the same measures were 11.8 µM and > 25 µM.
For `NC(=O)NCCC1=CCCCC1` the same measures were > 25 µM (inactive) and > 25 µM.
Turning to `CC1CCc2c(sc(NC(=O)COC(=O)c3ccc(O)cc3)c2C#N)C1` (stereo unspecified), the IC50 is > 25 µM (inactive) (WT cells) and > 25 µM under setting [1].
For the molecule `CCC(C)n1c(SCc2ccccc2)nc2ccsc2c1=O` (stereo unspecified), the IC50 runs as follows: (WT cells) 22.9 µM; under setting [1], > 25 µM.
As to `Cc1ccc(C)c(NC(=O)c2cc(-c3ccccc3)nn2-c2ccccc2)c1`, the IC50 was 4.99 µM (WT cells) and > 25 µM under setting [1].
For `S=c1[nH]nc(-c2ccc3ccccc3n2)n1-c1cc(Cl)cc(Cl)c1` the same measures were 13.7 µM and > 25 µM.
Turning to `CC(NC(=S)NCCCN1CCOCC1)C1CC2CCC1C2` (stereo unspecified), the IC50 is > 25 µM (inactive) (WT cells) and > 25 µM under setting [1].
Take `CCc1ccc(-c2nn(-c3ccccc3)cc2CSC(=N)N)cc1`: the IC50 is > 25 µM (inactive) (WT cells) and > 25 µM under setting [1].
As for `O=C(Oc1cccnc1)c1ccc(Cl)c(Cl)c1`, the IC50 is, setting by setting: (WT cells) > 25 µM (inactive); under setting [1], > 25 µM.
For `COc1ccc(-c2noc(CSc3nnc(Cc4ccccc4)n3-c3ccc(Cl)cc3)n2)cc1` the same measures were 16.1 µM and > 25 µM.
On the same counts, the results for `COc1ccccc1Cn1c(/C=C/c2ccccc2)nc2ccccc21` are 9.02 µM (inactive) and 8.43 µM.
Turning to `Cc1cc(C)cc(NC(=S)NCCSc2ccc(Cl)cc2)c1`, the IC50 (WT cells) was 4.68 µM and the IC50 under setting [1] came out at 6.34 µM.
For `COC(=O)c1c(NC(=O)CN2CCC3(O)CCCCC3C2c2ccc(F)cc2)sc(C)c1C` (stereo unspecified) the same measures were 14.4 µM and > 25 µM.
On the same counts, the results for `CCCn1c2c(c(O)c(C(=O)Nc3nccs3)c1=O)CCCC2` are 12.7 µM and > 25 µM.
For `OCCN(CCO)CC(O)COc1ccc(C23CC4CC(CC(C4)C2)C3)cc1` (stereo unspecified), the IC50 is, setting by setting: (WT cells) > 25 µM (inactive); under setting [1], > 25 µM.
Take `CC(=O)Nc1sc2c(c1C(c1ccc(Cl)cc1)N1CCOCC1)CCCC2` (stereo unspecified): the IC50 by setting is: (WT cells) 13 µM; under setting [1], > 25 µM.
On the same counts, the results for `Cc1ccc(S(=O)(=O)Nc2ccc(N=Nc3ccc(O)cc3)cc2)cc1` are 17 µM and > 25 µM.
For `Cc1ccc(Cn2ncc3c(N4CCN(c5ccccc5C)CC4)ncnc32)cc1` the same measures were 7.78 µM and 24.7 µM.
`CC(C)(C)Nc1nc(SCc2ccccc2)nc(N2CCOCC2)n1`: the IC50 reads like this: (WT cells) 17.3 µM; under setting [1], > 25 µM.
For `CCOC(=O)c1cnc(-c2ccccc2)nc1-c1ccccc1` the same measures were > 25 µM (inactive) and > 25 µM.
For `CCC(=O)N1CCN(c2ccccc2NC(=O)COc2cc(C)ccc2C(C)C)CC1` the same measures were > 25 µM (inactive) and > 25 µM.
For `O=c1c2ccccc2n(Cc2ccc(F)cc2)c(=O)n1C1CCCC1` the same measures were 17 µM and > 25 µM.
With `Cc1ccc(Nc2nc(N)nc(CSc3nc4ccccc4s3)n2)cc1`, the IC50 was 14.2 µM (WT cells) and 17 µM under setting [1].
In the case of `Cn1c(/C=C/N2CCOCC2)c(C(=O)c2ccc(Br)cc2)c(=O)n(C)c1=O`, the IC50 by setting is: (WT cells) > 25 µM (inactive); under setting [1], > 25 µM.
For the molecule `Fc1cccc(-c2cc3nc4c(c(N5CCC6(CC5)OCCO6)n3n2)CCCC4)c1`, the IC50 reads like this: (WT cells) > 25 µM (inactive); under setting [1], > 25 µM.
Regarding `O=C(CCC1N=C2c3ccccc3N=C(SCc3cccc(Cl)c3)N2C1=O)NCc1ccco1` (stereo unspecified), the IC50 by setting is: (WT cells) > 25 µM (inactive); under setting [1], > 25 µM.
For the molecule `CCC(=O)Nc1ccc(Br)c(Cl)c1`, the IC50 runs as follows: (WT cells) > 25 µM (inactive); under setting [1], > 25 µM.
On the same counts, the results for `O=C(Nc1ccccc1Sc1ccccc1)c1ccc(F)cc1` are > 25 µM (inactive) and > 25 µM.
As for `Cc1ccccc1S(=O)(=O)c1c(C)cc(C)n(CC(C)C)c1=O`, the IC50 by setting is: (WT cells) > 25 µM (inactive); under setting [1], > 25 µM.
On the same counts, the results for `Cc1cc(=O)[nH]c(SCC(N)=O)c1C#N` are > 25 µM (inactive) and > 25 µM.
For `CCOC(=O)N1CCN(CC(O)COC2CC(C)CCC2C(C)C)CC1` (stereo unspecified) the same measures were > 25 µM (inactive) and > 25 µM.
Take `CCOC(=O)C1=NN(c2ccccc2)C2=NC(C)=C(C(=O)OC)C(c3ccc(C)cc3)N12` (stereo unspecified): the concentration for half-maximal inhibition (IC50) runs as follows: (WT cells) 8.75 µM; under setting [1], > 25 µM.
In the case of `Cc1[nH][nH]c(=O)c1C(c1c(C)[nH][nH]c1=O)c1cn(Cc2ccc(Cl)c(Cl)c2)c2ccccc12`, the 50% inhibitory concentration (IC50) by setting is: (WT cells) 5.68 µM; under setting [1], > 25 µM.
For `CCc1ccc(OCC2c3cc(OC)c(OC)cc3CCN2C(=S)NC)cc1` (stereo unspecified) the same measures were > 25 µM (inactive) and > 25 µM.
On the same counts, the results for `O=[N+]([O-])c1ccc(Nc2c3ccccc3nc3ccccc23)cc1` are 12.4 µM and 18.1 µM.
On the same counts, the results for `O=C(N/N=C/c1cccc(O)c1)c1ccc(COc2ccccc2Br)cc1` are 18.8 µM and > 25 µM.
`CCCCOP(=O)(c1ccc(N(C)C)cc1)C(Nc1ccccc1)c1ccccc1` (stereo unspecified): the IC50 reads like this: (WT cells) 14.1 µM; under setting [1], > 25 µM.
On the same counts, the results for `Cc1nn(C(C)(C)C)c(OC(=O)c2cccs2)c1Sc1ccccc1` are 22.1 µM and > 25 µM.
On to `Cc1ccc(CNCC(O)(c2ccccc2)c2ccc(Cl)cc2)cc1` (stereo unspecified), for which the IC50 is, setting by setting: (WT cells) 18.7 µM; under setting [1], 24.9 µM.
`CCC(C)c1ccc(NC(=S)Nc2ccc(OC)c(OC)c2)cc1` (stereo unspecified): the IC50 (WT cells) was > 25 µM (inactive) and the IC50 under setting [1] was > 25 µM.
On the same counts, the results for `O=c1c2ccccc2nc2n1C1(CCCCC1)Cc1ccccc1-2` are 23.4 µM and > 25 µM.
Turning to `N#CC(C#N)=C1C=CC=CN1/C(=C\c1ccccc1Cl)C(=O)c1ccccc1`, the IC50 by setting is: (WT cells) 18.6 µM; under setting [1], > 25 µM.
On the same counts, the results for `CC(=O)N(Cc1ccc(F)cc1)C1=C(NCCc2ccccc2)C(=O)c2ccccc2C1=O` are 24 µM and > 25 µM.
For `Cc1cc2ncn(/N=C/c3cccnc3)c2cc1C` the same measures were > 25 µM (inactive) and > 25 µM.
Turning to `CCOC(=O)c1cnc(SC)nc1Sc1cc(Cl)ccc1Cl`, the half-inhibitory concentration (IC50) (WT cells) is 11.2 µM and the half-maximal inhibitory concentration (IC50) under setting [1] was 23.9 µM.
For `Cc1ccc(-n2cc(C(=O)c3ccc(F)cc3)nn2)cc1Cl`, the IC50 is > 25 µM (inactive) (WT cells) and > 25 µM under setting [1].
For the molecule `CCc1ccccc1N(C1=NCCCS1)S(=O)(=O)c1ccc(C(C)(C)C)cc1`, the IC50 is 7.58 µM (WT cells) and > 25 µM under setting [1].
For the molecule `CCOC(=O)C1=C(C)C(c2cccc(Oc3ccccc3)c2)NC(=S)N1` (stereo unspecified), the IC50 is > 25 µM (inactive) (WT cells) and > 25 µM under setting [1].
Take `Cc1ccc(C(c2nnnn2CCc2ccccc2)N2CCC(C)CC2)cc1` (stereo unspecified): the IC50 is, setting by setting: (WT cells) > 25 µM (inactive); under setting [1], > 25 µM.
With `CC1(C)C=C2[C@H]3CC[C@@H]4[C@@]5(C)CCC(=O)C(C)(C)[C@@H]5CC[C@@]4(C)[C@]3(C)CC[C@@]2(C(=O)O)CC1`, the IC50 (WT cells) was 21.9 µM and the IC50 under setting [1] is > 25 µM.
In the case of `CC(C)(C)c1ccc(NC(=O)c2ccccc2)c([N+](=O)[O-])c1`, the IC50 reads like this: (WT cells) 24.9 µM (inactive); under setting [1], > 25 µM.
On the same counts, the results for `O=C(OCc1nnc(-c2ccccc2)o1)C12CC3CC(CC(Br)(C3)C1)C2` are 24.1 µM and > 25 µM.
On the same counts, the results for `CCS(=O)(=O)Nc1cccc(-c2cc(-c3ccccc3)c3cc(C)ccc3n2)c1` are 6.46 µM and > 25 µM.
For `CN1/C(=C\C=Nc2ccc3ccccc3c2)C(C)(C)c2ccccc21` the same measures were > 25 µM (inactive) and 21.8 µM.
For `Cc1ccc(NC(=S)N(CCCN2CCCC2)Cc2cccn2Cc2ccc(Cl)cc2)cc1C`, the IC50 is 13.1 µM (WT cells) and > 25 µM under setting [1].
For `Cn1c(Oc2ccc3c(c2)OCO3)nc2c1c(=O)n(Cc1ccccc1)c(=O)n2C`, the IC50 is > 25 µM (inactive) (WT cells) and > 25 µM under setting [1].
With `COc1ccc(-c2[nH]c(-c3cc(OC)c4c(c3)OCO4)nc2-c2ccccc2)cc1`, the IC50 reads like this: (WT cells) 12.6 µM; under setting [1], > 25 µM.
Turning to `Cc1sc(NC(=O)CSc2nnnn2C2CCCCC2)c(C#N)c1C`, the IC50 runs as follows: (WT cells) > 25 µM (inactive); under setting [1], > 25 µM.
`Cc1nn(CCC(N)=S)c2nc(-c3cccs3)cc(C(F)(F)F)c12`: the 50% inhibitory concentration (IC50) reads like this: (WT cells) 18.9 µM; under setting [1], > 25 µM.
For the molecule `CNC(=S)NCCC(c1ccccc1)c1ccccc1`, the IC50 runs as follows: (WT cells) > 25 µM (inactive); under setting [1], > 25 µM.
`CC1CCCCN1C(=O)Cn1cc(/C=C2/C(=O)Nc3ccccc32)c2ccccc21` (stereo unspecified): the half-inhibitory concentration (IC50) is, setting by setting: (WT cells) 24.4 µM; under setting [1], > 25 µM.
For `OC(CC1CC12c1ccccc1-c1ncccc12)(c1ccccc1)c1ccccc1` (stereo unspecified) the same measures were 13.8 µM and > 25 µM.
For `Cc1ccccc1NC1=C(Cl)C(=O)N(C2CCCCC2)C1=O` the same measures were 19.1 µM and > 25 µM.
For the molecule `Cc1ccc(SCC(=O)O/N=C(\N)c2cccc([N+](=O)[O-])c2)cc1`, the IC50 is, setting by setting: (WT cells) > 25 µM (inactive); under setting [1], > 25 µM.
For `O=Nc1c(O)n(Cc2cccc(Cl)c2)c2ccccc12` the same measures were > 25 µM (inactive) and > 25 µM.
For `Cc1ccc(NC(=S)N(CCCN2CCCC2)Cc2cccn2Cc2ccc(Cl)cc2)cc1`, the IC50 reads like this: (WT cells) 14.4 µM; under setting [1], > 25 µM.

(Values after PubChem BioAssay AID1361 (SRMLSC, 2008).)
